Measured values taken from PMC10266451, “SKF96365 modulates activity of CatSper channels in human sperm” (Molecular Human Reproduction, 2023).

Tests used:
Assay type in all cases: cell-based
[1] = target: T1, CatSper (cation channel of sperm) (Homo sapiens, UniProt Q7RTX7+Q86XQ3+Q8NEC5+Q96P56); assay: fluo4 Ca2+ population fluorimetry in human sperm; settings: activation, capacitated intact sperm, sEBSS with BSA, whole-cell [Ca2+]i read-out attributed to CatSper
T1 construct: gene CATSPER1; native channel complex in capacitated donor spermatozoa; with Cation channel sperm-associated auxiliary subunit beta; Cation channel sperm-associated auxiliary subunit gamma; Cation channel sperm-associated auxiliary subunit delta; Cation channel sperm-associated auxiliary subunit epsilon; Cation channel sperm-associated auxiliary subunit zeta

[2] = target: T1, CatSper (cation channel of sperm); assay: whole-cell patch clamp of human sperm, Cs+ CatSper currents; settings: activation within 30 s, followed by secondary block; divalent-free Cs+ solutions, ramps -80 to 80 mV
[3] = target: T1, CatSper (cation channel of sperm); assay: as above; settings: activation, stable; divalent-free Cs+ solutions, ramps -80 to 80 mV; direct binding to CatSper not tested

SMILES	EC50 ([1]; mechanism distinct from progesterone) [µM]	% current enhancement at 30 μM [2] [%]	EC50 ([1]; direct binding to CatSper not tested) [µM]	% current increase at 3 μM [3] [%]
COc1ccc(CCCOC(Cn2ccnc2)c2ccc(OC)cc2)cc1 (stereo not shown) [SKF96365]	9.5	100	–	–
CC(=O)[C@H]1CC[C@H]2[C@@H]3CCC4=CC(=O)CC[C@]4(C)[C@H]3CC[C@]12C [progesterone]	–	–	0.032	200
